Experimental data published in ChEMBL document CHEMBL1159319, “Deoxyartemisinin derivatives from photooxygenation of anhydrodeoxydihydroartemisinin and their cytotoxic evaluation” (2002).
In brackets after ≈: the same amount, converted by molar mass.

Tests used:
Type in all cases: functional
Conditions in all cases: read-out: ED50 (the source's name)
[1] = test system: BT-549; assay: Cytotoxicity against human BT549 cells
[2] = test system: MCF7; assay: Cytotoxicity against human MCF7 cells
[3] = test system: HL-60; assay: Cytotoxicity against human HL-60(TB) cells
[4] = test system: IGROV-1; assay: Cytotoxicity against human IGROV1 cells
[5] = test system: HOP-92; assay: Cytotoxicity against human HOP92 cells
[6] = test system: RPMI-8226; assay: Cytotoxicity against human RPMI8226 cells
[7] = test system: SR; assay: Cytotoxicity against human SR cells
[8] = test system: CCRF-CEM; assay: Cytotoxicity against human CCRF-CEM cells
[9] = test system: K562; assay: Cytotoxicity against human K562 cells

C=C1C(=O)O[C@@H]2O[C@@]3(C)CC[C@H]4[C@H](C)CC[C@@H]1[C@@]24O3 [DEOXYARTEMISITENE]
EC50 [1]: 1.97 mg/L (≈ 7.45 µM) | EC50 [2]: 1.46 mg/L (≈ 5.52 µM) | EC50 [3]: 0.69 mg/L (≈ 2.61 µM) | EC50 [4]: 0.89 mg/L (≈ 3.37 µM) | EC50 [5]: 0.92 mg/L (≈ 3.48 µM) | EC50 [6]: 1.68 mg/L (≈ 6.36 µM) | EC50 [7]: 1.89 mg/L (≈ 7.15 µM) | EC50 [8]: 0.92 mg/L (≈ 3.48 µM) | EC50 [9]: 0.94 mg/L (≈ 3.56 µM)
